Data published in patent publication US8399493B2, “Pyridinone derivatives and their use as positive allosteric modulators of mGluR2-receptors” (Janssen Pharmaceuticals, Inc., priority 2004, dated 2013).

melting point [°C]	Structure (SMILES)
112 to 114	O=c1ccc(-c2ccoc2)cn1Cc1ccc(Cl)cc1 [2-59]
101	Cc1ccc(-c2ccc(=O)n(Cc3ccc(Cl)cc3)c2)s1 [2-60]
191	COc1ccc(-c2ccc(=O)n(Cc3ccc(Cl)cc3)c2)cn1 [2-62]
169	O=c1ccc(-c2ccc(Cl)nc2)cn1Cc1ccc(Cl)cc1 [2-63]
164	CN(C)c1ccc(-c2ccc(=O)n(Cc3ccc(Cl)cc3)c2)cn1 [2-64]
154	O=c1ccc(-c2ccc(N3CCOCC3)nc2)cn1Cc1ccc(Cl)cc1 [2-65]
191	COc1ncc(-c2ccc(=O)n(Cc3ccc(Cl)cc3)c2)cn1 [2-66]
144 to 147	Cn1ccc2cc(-c3ccc(=O)n(Cc4ccc(Cl)cc4)c3)ccc21 [2-68]
119	O=c1ccc(-c2ccc3c(c2)CCO3)cn1Cc1ccc(Cl)cc1 [2-69]
165	O=c1ccc(-c2cnc3ccccc3c2)cn1Cc1ccc(Cl)cc1 [2-70]
261	O=c1ccc(-c2ccc3cccnc3c2)cn1Cc1ccc(Cl)cc1 [2-71]
120	O=c1ccc(-c2ccc3nccnc3c2)cn1Cc1ccc(Cl)cc1 [2-72]
106	CN(Cc1ccc(=O)n(Cc2ccc(Cl)cc2)c1)c1ccccc1 [3-07, 1-(4-Chlorobenzyl)-5-((methyl(phenyl)amino)methyl)pyridin-1-2(1H)-one]
120	COc1cccc(C(O)c2ccc(=O)n(Cc3ccc(Cl)cc3)c2)c1 (stereo not shown) [3-10, 1-(4-Chlorobenzyl)-5-(hydroxy(3-methoxyphenyl)methyl)pyridin-2(1H)-one]
104	COc1cccc(C(=O)c2ccc(=O)n(Cc3ccc(Cl)cc3)c2)c1 [3-12, 1-(4-Chlorobenzyl)-5-(3-methoxybenzoyl)pyridin-2(1H)-one]
122	COc1ccc(-c2ccc(=O)n(Cc3ccccc3C)c2)cc1 [4-05]
123 to 124	COc1ccc(-c2ccc(=O)n(Cc3ccc(C)cc3)c2)cc1 [4-06]
131 to 132	COc1ccc(-c2ccc(=O)n(Cc3ccc(C(F)(F)F)cc3)c2)cc1 [4-07]
89	COc1ccc(-c2ccc(=O)n(Cc3cccc(F)c3)c2)cc1 [4-09]
103	COc1ccc(-c2ccc(=O)n(Cc3ccc(F)cc3)c2)cc1 [4-10]
109	COc1ccc(-c2ccc(=O)n(Cc3ccc(F)cc3F)c2)cc1 [4-12]

melting point [°C]	Structure (SMILES)
71	COc1ccc(-c2ccc(=O)n(Cc3cccc(F)c3F)c2)cc1 [4-13]
112	COc1ccc(-c2ccc(=O)n(Cc3c(F)cc(F)cc3F)c2)cc1 [4-17]
125	COc1ccc(-c2ccc(=O)n(Cc3ccccc3Cl)c2)cc1 [4-18]
103	COc1ccc(Cn2cc(-c3ccc(OC)cc3)ccc2=O)cc1 [4-23]
72	COCc1ccc(Cn2cc(-c3ccc(OC)cc3)ccc2=O)cc1 [4-25, 1-(4-(Methoxymethyl)benzyl)-5-(4-methoxyphenyl)pyridin-2(1H)-one]
147 to 150	COC(=O)c1ccc(Cn2cc(-c3ccc(OC)cc3)ccc2=O)cc1 [4-27]
165	COc1ccc(-c2ccc(=O)n(Cc3cccc(C#N)c3)c2)cc1 [4-29]
119 to 120	COc1ccc(-c2ccc(=O)n(Cc3ccc(C#N)cc3)c2)cc1 [4-30]
130	COc1ccc(-c2ccc(=O)n(Cc3ccc(OC(F)(F)F)cc3)c2)cc1 [4-31]
95	COc1ccc(-c2ccc(=O)n(Cc3ccc([N+](=O)[O-])cc3)c2)cc1 [4-33]
131 to 134	COc1ccc(-c2ccc(=O)n(Cc3ccc(C(F)(F)F)cc3F)c2)cc1 [4-34]
82 to 84	COc1ccc(-c2ccc(=O)n(Cc3ccc(C(F)(F)F)c(F)c3)c2)cc1 [4-35]
98 to 100	COc1ccc(-c2ccc(=O)n(Cc3ccc(C)c(F)c3)c2)cc1 [4-36]
145 to 148	COc1ccc(-c2ccc(=O)n(Cc3ccc4ccccc4c3)c2)cc1 [4-38]
120	COc1ccc(-c2ccc(=O)n(Cc3ccc(C(F)(F)F)o3)c2)cc1 [4-39]
100 to 102	COc1ccc(-c2ccc(=O)n(Cc3cc(C)on3)c2)cc1 [4-40]
104	COc1ccc(-c2ccc(=O)n(Cc3noc(-c4ccccc4)n3)c2)cc1 [4-41]
123	COc1ccc(-c2ccc(=O)n(Cc3nc(-c4ccc(F)cc4)no3)c2)cc1 [4-42, 1-((3-(4-Fluorophenyl)-1,2,4-oxadiazol-5-yl)methyl)-5-(4-methoxyphenyl)pyridin-2(1H)-one]
135	COc1ccc(-c2ccc(=O)n(Cc3ccc(Cl)nc3)c2)cc1 [4-44]
130	CCc1ccc(Cn2cc(-c3ccc(OC)cc3)ccc2=O)cn1 [4-45, 1-((6-Ethylpyridin-3-yl)methyl)-5-(4-methoxyphenyl)pyridin-2(1H)-one]
115	COc1ccc(-c2ccc(=O)n(Cc3nc4cc(F)ccc4o3)c2)cc1 [4-51, 1-((5-Fluorobenzo[d]oxazol-2-yl)methyl)-5-(4-methoxyphenyl)-pyridin-2(1H)-one]

melting point [°C]	Structure (SMILES)
127 to 130	COc1ccc(-c2ccc(=O)n(Cc3cnc(C)s3)c2)cc1 [4-52]
121	COc1ccc(-c2ccc(=O)n(Cc3nc4ccccc4s3)c2)cc1 [4-53]
126	COc1ccc(-c2ccc(=O)n(Cc3nc4c(F)cccc4s3)c2)cc1 [4-54]
112 to 113	Cc1ccc(-c2ccc(=O)n(Cc3cccc(F)c3)c2)cc1 [6-04]
85	COCc1ccc(-c2ccc(=O)n(Cc3ccc(F)c(F)c3)c2)cc1 [6-11]
142	CC(=O)c1ccc(-c2ccc(=O)n(Cc3ccc(F)c(F)c3)c2)cc1 [6-12]
139	N#Cc1ccc(-c2ccc(=O)n(Cc3ccc(F)c(F)c3)c2)cc1 [6-13]
96	O=c1ccc(-c2cccs2)cn1Cc1ccc(F)c(F)c1 [6-15]
99	O=c1ccc(-c2ccc3c(c2)CCO3)cn1Cc1ccc(F)c(F)c1 [6-17]
181	O=c1ccc(-c2ccc3c(c2)OCO3)cn1Cc1ccc(F)c(F)c1 [6-18]
164	O=c1ccc(-c2nc3ccccc3s2)cn1Cc1ccc(Cl)c(F)c1 [6-19, 1-(4-Chloro-3-fluorobenzyl)-5-(benzo[d]thiazol-2-yl)pyridin-2(1H)-one]
102	O=c1ccc(Br)cn1Cc1ccc(Cl)cc1F [6-20]
224	O=c1ccc(-c2ccc(O)cc2)cn1Cc1ccc(Cl)cc1F [6-21]
70	Nc1cccc(-c2ccc(=O)n(Cc3ccc(Cl)cc3F)c2)c1 [6-22]
139	NCc1ccc(-c2ccc(=O)n(Cc3ccc(Cl)cc3F)c2)cc1 [6-24]
140	N#Cc1cccc(-c2ccc(=O)n(Cc3ccc(Cl)cc3F)c2)c1 [6-25]
176	O=c1ccc(-c2ccc(CO)cc2)cn1Cc1ccc(Cl)cc1F [6-26]
127	O=c1ccc(-c2ccc(C(F)(F)F)cc2)cn1Cc1ccc(Cl)cc1F [6-27]
104	COc1ccc(-c2ccc(=O)n(Cc3ccc(Cl)cc3F)c2)cc1C [6-28]
